From patent US6605115B1, “Method and composition for inhibiting cardiovascular cell proliferation” (Board of Trustees of the Leland Stanford Junior University, priority 1999, dated 2003)

Columns and labels:
Rat aortic VSMC = assay: VSMC proliferation assay (XTT); assay type: cell-based; conditions: 10.0 μM, 30 minutes, then growth medium 0.5% FBS for 48 hours; vs vehicle
Experimental: Rat aortic VSMC were grown to 50% confluence in 96-well cell culture plates. VSMC were then washed and incubated with serum free DMEM for 48 hours to obtain quiescent nondividing cells. Thereafter, VSMC were treated with vehicle, L-R7 (10.0 μM), or D-R7 (10.0 μM) for 30 minutes. After the treatment, cells were washed, and further incubated with serum containing DMEM (0.5%, FBS). Cells were harvested after 48 hours of incubation. Cell count was performed with commercial cell proliferation assay kit using spectrophotometer (XTT, Boehringer Mannheim). As a negative control, cells treated with vehicle and incubated with DSF were used. As an index of cell proliferation, the OD ratio of each treatment group to negative control group was calculated as an index of cell proliferation.

iNOS protein = assay: Assay for iNOS protein expression (western blotting); assay type: cell-based, rat; conditions: 10 μM, 30 minutes exposure, cells stimulated by IFN-γ and LPS
Experimental: In order to clarify the effects of arginine polymer translocation on iNOS expression, iNOS protein concentrations of rat VSMC were analyzed by western blotting. Samples were analyzed from non-stimulated cells, cells stimulated with IFN-γ (100 U/ml) and LPS (100 μg/ml), or R7 (10 μM) pretreated cells which were stimulated with IFN-γ and LPS. Treated cells were washed twice with PBS, and total cell lysates were harvested in 150 μl of lysis buffer containing 150 mM NaCl, 50 mM Tris/Cl, pH 8.0, 1% NP40, and 0.1% SDS. Samples were centrifuged for 5 minutes at 14,000 g, 4° C., to remove insoluble material, and the supernatant was collected. Protein concentrations were measured with the Lowry method. Cell lysates containing 50 μg of protein were boiled for 5 minutes and separated on an 8.0% SDS-polyacrylamide minigel. Eluted proteins were electroblotted onto nitrocellulose membrane (HyBond, Amersham, England). The blots were incubated for 1 hour in 5% non-fat dry milk/0.05% Tween® in Tris buffered saline (TBS) to block non-specific binding of the antibody. Blots were incubated for 3 hours with primary monoclonal antibodies against iNOS protein diluted 1:2,500 in TBS/Tween®. The blots were then incubated with peroxidase labeled gout anti-mouse IgG in the same buffer for 1 hour. […]

cytokine-stimulated VSMC [1] = assay: Effect of arginine oligomers on NO production in cytokine-stimulated VSMC (NO2, Griess); assay type: cell-based, rat; conditions: exposure 5 minutes; observed for 24 hours; free L-arginine at 1 mM
[2] = system: human umbilical vein endothelial cells (ECV304); assay: In vitro translocation of biotin-labeled peptides into endothelial cells; assay type: cell-based; conditions: VSMC and endothelial cells in culture
Experimental: Spontaneously transformed human umbilical vein endothelial cells (ECV304, ATCC) were cultured in medium M199 (Irvine Scientific) containing 10% fetal bovine serum (FBS), 100 IU/ml penicillin and 100 μg/ml of streptomycin (Gibco BRL). Confluent cells were washed and placed in serum-free medium. After 2 hours, the cells were incubated in presence of biotin labeled peptides, as bL-R7, or bD-R7, or bL-K7 (0.1, 1.0, and 10.0 μM). After 30 minutes of incubation, cells were washed 3 times with phosphate-buffered saline (PBS), fixed in ethanol/acetone; washed in PBS; incubated for 30 minutes with peroxidase suppressor (ImmunoPure, Pierce) to block endogenous peroxidase activity; and then incubated with 5 μg/ml of horse-radish peroxidase (HRP) conjugated strepavidin (Pierce) for 30 minutes. Substrate of HRP, diaminobenzidine (DAB, Sigma), was added to the cells. The reaction was terminated by washing in distilled water after a 60-second incubation. This experiment was repeated 3 times.

vein grafts = assay: Vein graft model: vessel morphometry 28 days after surgery; assay type: in vivo, New Zealand white rabbits
Experimental: Male New Zealand white rabbits (3.0-3.5 kg) fed standard diets were anesthetized with a mixture of ketamine (40 mg/kg) and xylazine (5 mg/kg) intramuscularly. The left external jugular vein was exposed through a longitudinal neck incision. The jugular vein was excised, gently flushed and immersed in PBS (control) or PBS containing either L-R7 (10.0 μM) or D-r7 (10.0 μM) for 30 minutes.
The right common carotid artery was exposed and clamped at the both proximal and distal ends. The treated vein segment was washed with PBS and then anastomosed in a reverse end-to-side fashion into the carotid artery, using continuous 8-0 polypropylene sutures. The common carotid artery was ligated and dissected between the two anastomoses, and the wound was closed with 3-0 nylon suture.
Vein graft segments were harvested on the 28th surgical day. Graft segments were fixed in 10% buffered formalin with gentle intraluminal pressure to maintain the physiological graft configuration. The middle portion of the paraffin samples were sectioned (5 μm) and stained with hematoxylin/eosin for light microscopic examination (FIGS. 8A-C). Three sections of each graft, taken at 0.5 mm intervals, were analyzed by planimetry by a observer blinded to the treatment group. The cross-sectional areas of the lumen, intima and media was digitized with the use of the Image Analyst program (Automatrix). The ratio of intima to media (I/M) area was calculated.

vein graft segments = assay: Ex vivo NOx production from vein graft harvested 3 days after surgery; assay type: in vivo, New Zealand white rabbits; conditions: vein grafts harvested after 3 days, absence of calcium ionophore
Experimental: Vein grafts were harvested 3 days after surgery, as described in Example 7. Vein graft segments were incubated in 1 me of Hanks' buffered saline solution (HBSS, Irvine Scientific) containing Ca^2+ (1.0 mM) and L-arginine (100 μM, Sigma) at 37° C. for 2 hours. NOx (nitrate and nitrite) production was measured either in the absence (basal) or presence (stimulated) of calcium ionophore (A23187, 10.0 μM, Sigma). Samples of the medium (80 μL) were collected, and NOx measurement was performed using the Griess reaction facilitated by a commercial calorimetric assay (Cayman Chemical).

cytokine-stimulated VSMC [3] = assay: Effect of arginine oligomers on NO production in cytokine-stimulated VSMC (NO2, Griess); assay type: cell-based, rat

## hepta-L-arginine [R7]
Rat aortic VSMC
  VSMC proliferation: significantly inhibited
iNOS protein
  expression levels of iNOS: no effect on the expression levels of iNOS
cytokine-stimulated VSMC [1]
  NO biosynthesis after 5 minutes exposure: sustained increase in NO biosynthesis
[2]
  translocation across cytoplasmic and nuclear membranes: very efficient at translocating across both cytoplasmic and nuclear membranes
Vein grafts
  myointima formation: substantially less myointima formation
Vein grafts; 10.0 μM
  intima/media ratio (I/M): 0.4±0.2
Vein grafts; 10.0 μM, 30 minutes immersion
  intimal area: 0.5±0.2 mm^2
Vein grafts; 10.0 μM, vs control
  reduction of intimal area: more than 70%
Vein graft segments
  Basal NOx production: 80±14 nM/mg tissue/hr
cytokine-stimulated VSMC [3]; R7 10 μM pretreatment, free L-arginine up to 1 mM
  elevation of NO production: significant elevation of NO production
cytokine-stimulated VSMC [3]; pretreatment 30 minutes, then IFN-γ and LPS, 100 μM extracellular L-arginine
  NO production: dose-dependent increases in NO production at doses as low as 10 μM
cytokine-stimulated VSMC [3]; pretreatment 30 minutes, vs. vehicle treated cytokine-stimulated cells
  degree of enhancement of NO production: 24±3.8%
